Values joined by “and” are separate entries in the source; they are usually repeats but may differ in a detail not shown here. Equal entries are not always repeated. Active and inactive are the calls of the source. Cut-off read from the data, not from the text of the source, for most assays here: actives have a measured EC50 and inactives only a lower limit.
Experiments:
[1] = NIH3T3 cell viability loss – ATP luminescence, mouse fibroblasts, counter-screen, dose response (AID 2010); type: functional, cell-based;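 note: cells exposed to compound for about 90 hours before reading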
[2] = Trypanosoma cruzi growth suppression in host cells – NIH3T3 host cells, beta-gal luminescence, confirmation (AID 2044); type: functional, cell-based;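 note: intracellular parasites grown in NIH/3T3 mouse fibroblasts as host cells; luminescent beta-galactosidase reporter signal from transgenic T. cruzi replicating inside host cells; inhibitors lower the luminescence signal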
Cytochrome P450 1A2 = target: T1, Cytochrome P450 1A2 (Homo sapiens, UniProt P05177);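 note: PubChem cytochrome P450 panel assay, CYP1A2 panel member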
T1 sequence (P05177 whole entry): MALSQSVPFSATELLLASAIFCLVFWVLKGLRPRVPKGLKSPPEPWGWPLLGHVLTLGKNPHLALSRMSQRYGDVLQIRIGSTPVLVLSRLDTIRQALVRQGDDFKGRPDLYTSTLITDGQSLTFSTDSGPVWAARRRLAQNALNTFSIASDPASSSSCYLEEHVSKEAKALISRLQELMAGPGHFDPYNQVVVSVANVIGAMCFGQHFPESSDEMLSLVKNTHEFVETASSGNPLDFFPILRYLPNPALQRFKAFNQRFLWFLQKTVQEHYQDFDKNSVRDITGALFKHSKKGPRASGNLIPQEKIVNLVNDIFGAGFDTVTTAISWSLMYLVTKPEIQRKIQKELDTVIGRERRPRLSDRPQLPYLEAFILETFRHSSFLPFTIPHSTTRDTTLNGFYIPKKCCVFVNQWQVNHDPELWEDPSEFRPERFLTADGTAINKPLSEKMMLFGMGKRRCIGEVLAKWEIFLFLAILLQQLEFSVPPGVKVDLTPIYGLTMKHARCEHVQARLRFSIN

With `O=C(NCCCN1CCN(CCCNC(=O)c2cccc([N+](=O)[O-])c2)CC1)c1cccc([N+](=O)[O-])c1` the EC50 [1] was > 30 µM (not active) and the EC50 [2] was 1.11 µM (active).
For `Cc1onc(-c2ccccc2Cl)c1C(=O)O/N=C(\N)c1ccccc1`, the EC50 [1] was > 60 µM (not active) and the EC50 [2] was 2.34 µM (active).
In the case of `CCC/C=C(\CCC)C(NS(=O)(=O)c1ccc(Cl)cc1)c1ccccc1` (stereo not given), the AC50 (Cytochrome P450 1A2) is reported as 12.6 µM (inconclusive).
In the case of `O=C(CSc1nc2nncc-2c(O)n1-c1ccc(Cl)c(Cl)c1)NCc1ccccc1Cl`, the EC50 [1] is reported as > 60 µM (inconclusive) and the EC50 [2] is reported as 2.43 µM (active).
For `Cc1ccc(NP(=O)(c2ccc(N(C)C)cc2NC(=O)c2cccs2)N2CCOCC2)cc1` (stereo not given), the EC50 [1] was > 60 µM (not active) and the EC50 [2] was 1.49 µM (active).
For `O=C(NC1CCCC1)C(c1ccccc1)N(Cc1cccnc1)C(=O)Cc1cccs1` (stereo not given), the EC50 [1] was > 60 µM (not active) and the EC50 [2] was 1.45 µM (active).
In the case of `CCCCc1sc(-c2c(C#N)c(N)nc3c2CCCCC3)cc1[N+](=O)[O-]`, the EC50 [1] is reported as > 60 µM (not active) and the EC50 [2] is reported as 1.98 µM (active).
With `COc1ccc(CCC(=O)N2CCN(C3CCCCC3)CC2)cc1` the EC50 [1] was > 60 µM (not active) and the EC50 [2] was 1.53 µM (active).
In the case of `Cc1ccc(NC(=O)COc2ccc(CCO)cc2-n2nc3ccccc3n2)cc1C`, the EC50 [1] is reported as > 60 µM (inconclusive) and the EC50 [2] is reported as 1.61 µM (active).
For `CCOC(=O)C1(CCOc2ccccc2)CCN(Cc2cccc3nonc23)CC1`, the EC50 [1] was > 60 µM (not active) and the EC50 [2] was 1.49 µM (active).
In the case of `C[C@H]1C=C2C=C[C@H](C)[C@H](CC[C@@H]3C[C@@H](O)CC(=O)O3)[C@H]2[C@@H](OC(=O)[C@@H](C)CCO)C1`, the AC50 (Cytochrome P450 1A2) is reported as 31.6 µM (inconclusive).
With `Fc1ccc(N2CCN(Cc3c[nH]c4ccccc34)CC2)cc1` the EC50 [1] was > 60 µM (not active) and the EC50 [2] was 0.69 µM (active).
For `O=C(CCC1CCCN(Cc2ccncc2)C1)NCc1ccc(F)c(F)c1` (stereo not given), the EC50 [1] was > 60 µM (not active) and the EC50 [2] was 0.661 µM (active).
For `CC(C)/C=C1\CC/C(=C\c2cccnc2)C1=O`, the EC50 [1] was > 60 µM (not active) and the EC50 [2] was 1.14 µM (active).
In the case of `O=C(Nc1ccc(-c2csc(Nc3ccc(Cl)cc3)n2)cc1)c1cccc(C(F)(F)F)c1`, the EC50 [1] is reported as 7.75 µM (active) and the EC50 [2] is reported as 1.76 µM (active).
In the case of `COc1c(Cl)cc(Cl)cc1C(=O)Nc1ccc(NC(=O)c2cccs2)cc1`, the EC50 [1] is reported as > 60 µM (not active) and the EC50 [2] is reported as 1.95 µM (active).
For `COc1cccc(C(=O)C2CCCN(Cc3ccc(OC)c(Cn4cncn4)c3)C2)c1` (stereo not given), the EC50 [1] was > 60 µM (not active) and the EC50 [2] was 0.398 µM (active).
For `CCN1CCN(c2ccc(S(=O)(=O)N3CCOCC3)cc2NC(=O)COc2ccc(F)cc2Cl)CC1`, the EC50 [1] was 19.2 µM (active) and the EC50 [2] was 1.06 µM (active).
In the case of `Cc1ccc(S(=O)(=O)N2CCC(C(=O)Nc3ccc(S(=O)(=O)N4CCCC4)cc3)CC2)cc1C`, the EC50 [1] is reported as > 30 µM (not active) and the EC50 [2] is reported as 0.795 µM (active).
For `CCc1ccc2c(c1)C(c1ccc(N3CCOCC3)cc1)=NNC(c1ccncc1)=N2`, the EC50 [1] was > 30 µM (not active) and the EC50 [2] was 1.5 µM (active).
With `C[C@@H]1C[C@H](OC(=O)c2ccccc2O)CC(C)(C)C1` the AC50 (Cytochrome P450 1A2) was 12.6 µM (inconclusive).
In the case of `Brc1ccc(OCc2ccccc2)c(CNCc2ccncc2)c1`, the EC50 [1] is reported as > 60 µM (not active) and the EC50 [2] is reported as 0.802 µM (active).
For `CCCN(CCC)[C@H]1CCc2c(F)ccc(O)c2C1`, the AC50 (Cytochrome P450 1A2) was 12.6 µM (inconclusive) and 25.1 µM (inconclusive).
With `COc1cccc(/C=N/NC(=O)c2cccc([N+](=O)[O-])c2)c1OS(=O)(=O)c1ccc(C)cc1` the AC50 (Cytochrome P450 1A2) was 6.31 µM (inconclusive).
With `O=C1CCc2cc(OCCCCc3nnnn3C3CCCCC3)ccc2N1` [CILOSTAZOL] the AC50 (Cytochrome P450 1A2) was 39.8 µM (inconclusive).
In the case of `CC(=O)CCCCn1c(=O)c2c(ncn2C)n(C)c1=O` [PENTOXIFYLLINE], the AC50 (Cytochrome P450 1A2) is reported as 12.6 µM (inconclusive).

— ChEMBL document CHEMBL1201862, “PubChem BioAssay data set” (2004)
